Reference: patent US4434096A, “Substrates for the quantitative determination of proteolytic enzymes” (E. I. Du Pont de Nemours and Company, priority 1981, dated 1984)
Square brackets hold non-standard residues; d marks the D form. Peptide text beside a SMILES is read from it. * marks the point of attachment. SBn = c1ccc(CS*)cc1

Molecular target: human α-thrombin (Homo sapiens, UniProt P00734)
Assay: Kinetics of substrate hydrolysis by proteolytic enzyme (initial rates, centrifugal analyzer, Hanes plot)
Type: biochemical
Settings: substrate for human α-thrombin
Excerpt: The Michaelis-Menten constant, Km, is a kinetic parameter related to the affinity of a substrate for an enzyme under a given set of reaction conditions. The Km is defined as the substrate concentration at which the initial reaction velocity is one-half of the maximal initial reaction velocity. The maximal velocity (vmax), another important kinetic parameter, when divided by the enzyme concentration, yields kcat. The determination of Km and kcat for a given substrate with various enzymes allows the determination of the selectivity of that substrate for a given enzyme.
Km and vmax values can be determined by utilizing a centrifugal analyzer (GEMSAEC system, available from Electro-Nucleonics, Inc., Fairfield, N.J.) to measure the initial rates of substrate hydrolysis by the proteolytic enzyme. Five substrate concentrations ([S]), ranging from about one-fifth to five times the expected Km, can be used for triplicate determinations in this centrifugal analyzer. The initial reaction rates (v) can then be plotted in a Hanes plot, [S]/v versus [S], for a determination of Km (the absolute value of the X-intercept) and vmax (the reciprocal of the slope) through linear regression analysis. Alternative procedures are available for the calculation of Km and vmax.
For a given enzyme, lower Km values for a series of substrates indicate higher affinity of the substrate to the enzyme. This allows the utilization of lesser amounts of substrate while still operating at vmax.

Row | SMILES | Km [µM] | kcat [s⁻¹]
1 | CC(C)C[C@H](NC(=O)[C@H](N)C(C)C)C(=O)N[C@@H](CCCCN)C(=O)SCc1ccccc1 [H--D-Val--Leu--Lys--S--Bzl] (H-[dV]-Leu-Lys-SBn) | 16 | 94
2 | NCCCC[C@H](NC(=O)OCc1ccccc1)C(=O)SCc1ccccc1 [Z--Lys--S--Bzl] | 38 | 84
